According to ChEMBL document CHEMBL1122074 (1982):
Activity calls are given as the source filed them. No cut-off for these calls is given here.

What was measured:
[1] = target: T1, Opioid receptor (Mus musculus) (UniProt P42866+P32300+P33534); test: In vitro relative potency to morphine (IC50, 4.4E-8M) in mouse vas deferens was determined; inactive (potentiates contraction at >/=1.6E-6M); format: functional, tissue-based
[2] = target: T1, Opioid receptor (Mus musculus); test: […] relative molar potency represents the morphine ED50 ([…])/compound ED50 using the hotplate procedure in mice; inactive at 140 umol/kg; format: functional
[3] = target: Opioid receptors; mu/kappa/delta (Homo sapiens) (UniProt P41145+P41143+P35372); test: In vitro relative potency to morphine (IC50, 6.8E-8M) in guinea pig ileum was determined; inactive (potentiates contraction at >/=5.4E-8M); format: functional, tissue-based; conditions: Cavia porcellus, target entry is the homologue from another species
[4] = Molar potency (1/IC50) in the guinea pig ileum divided by its potency in the mouse vas deferens.; format: functional

T1 sequence (P32300 whole entry, looked up): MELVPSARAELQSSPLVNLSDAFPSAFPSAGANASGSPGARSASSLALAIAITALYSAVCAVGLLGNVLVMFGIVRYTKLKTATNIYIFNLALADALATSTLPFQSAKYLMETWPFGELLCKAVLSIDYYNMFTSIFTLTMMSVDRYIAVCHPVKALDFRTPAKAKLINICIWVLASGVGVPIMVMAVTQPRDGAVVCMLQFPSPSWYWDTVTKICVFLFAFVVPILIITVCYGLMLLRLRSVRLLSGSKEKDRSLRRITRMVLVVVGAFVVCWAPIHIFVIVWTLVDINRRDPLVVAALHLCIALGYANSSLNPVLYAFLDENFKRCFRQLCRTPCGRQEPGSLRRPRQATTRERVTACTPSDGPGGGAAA
T1 sequence (P33534 whole entry, looked up): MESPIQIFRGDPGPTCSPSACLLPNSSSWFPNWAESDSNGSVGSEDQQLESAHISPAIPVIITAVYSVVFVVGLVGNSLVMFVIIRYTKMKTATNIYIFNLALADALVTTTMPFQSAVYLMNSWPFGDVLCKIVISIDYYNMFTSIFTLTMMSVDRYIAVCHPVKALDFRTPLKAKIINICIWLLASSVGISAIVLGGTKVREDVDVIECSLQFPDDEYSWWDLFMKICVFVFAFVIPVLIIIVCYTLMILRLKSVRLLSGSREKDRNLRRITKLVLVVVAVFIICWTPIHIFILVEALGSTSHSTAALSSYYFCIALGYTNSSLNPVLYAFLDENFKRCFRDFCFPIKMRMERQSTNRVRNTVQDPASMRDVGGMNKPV
T1 sequence (P42866 whole entry, looked up): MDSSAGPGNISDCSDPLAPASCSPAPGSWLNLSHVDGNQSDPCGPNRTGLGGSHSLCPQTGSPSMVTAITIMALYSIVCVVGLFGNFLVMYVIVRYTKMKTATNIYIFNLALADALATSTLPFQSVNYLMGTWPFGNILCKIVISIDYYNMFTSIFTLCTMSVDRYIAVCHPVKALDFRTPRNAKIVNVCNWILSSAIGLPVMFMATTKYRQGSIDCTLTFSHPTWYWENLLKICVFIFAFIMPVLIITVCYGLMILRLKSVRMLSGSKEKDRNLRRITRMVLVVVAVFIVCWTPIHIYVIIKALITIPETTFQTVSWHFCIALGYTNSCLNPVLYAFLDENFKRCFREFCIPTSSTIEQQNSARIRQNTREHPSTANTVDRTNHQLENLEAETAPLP
Chain of Opioid receptors; mu/kappa/delta (Homo sapiens) (P35372 whole entry, looked up): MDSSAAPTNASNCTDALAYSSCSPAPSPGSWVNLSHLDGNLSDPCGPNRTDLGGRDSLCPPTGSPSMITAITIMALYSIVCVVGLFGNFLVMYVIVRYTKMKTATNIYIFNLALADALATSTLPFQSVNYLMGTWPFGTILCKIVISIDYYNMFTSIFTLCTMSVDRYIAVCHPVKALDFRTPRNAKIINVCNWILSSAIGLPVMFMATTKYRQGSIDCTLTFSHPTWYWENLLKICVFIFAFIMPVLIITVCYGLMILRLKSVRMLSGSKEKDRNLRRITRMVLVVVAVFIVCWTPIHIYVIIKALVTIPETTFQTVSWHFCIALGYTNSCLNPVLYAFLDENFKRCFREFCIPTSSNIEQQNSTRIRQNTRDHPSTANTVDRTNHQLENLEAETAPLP
Chain of Opioid receptors; mu/kappa/delta (Homo sapiens) (P41143 whole entry, looked up): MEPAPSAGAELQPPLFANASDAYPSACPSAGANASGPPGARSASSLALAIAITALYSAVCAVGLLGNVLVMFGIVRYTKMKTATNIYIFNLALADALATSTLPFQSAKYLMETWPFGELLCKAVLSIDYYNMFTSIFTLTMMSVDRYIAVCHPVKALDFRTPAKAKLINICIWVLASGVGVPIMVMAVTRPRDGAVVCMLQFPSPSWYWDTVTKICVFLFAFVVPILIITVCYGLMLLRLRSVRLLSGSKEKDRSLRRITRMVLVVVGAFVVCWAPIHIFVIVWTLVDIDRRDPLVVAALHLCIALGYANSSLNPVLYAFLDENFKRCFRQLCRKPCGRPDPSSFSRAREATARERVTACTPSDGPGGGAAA
Chain of Opioid receptors; mu/kappa/delta (Homo sapiens) (P41145 whole entry, looked up): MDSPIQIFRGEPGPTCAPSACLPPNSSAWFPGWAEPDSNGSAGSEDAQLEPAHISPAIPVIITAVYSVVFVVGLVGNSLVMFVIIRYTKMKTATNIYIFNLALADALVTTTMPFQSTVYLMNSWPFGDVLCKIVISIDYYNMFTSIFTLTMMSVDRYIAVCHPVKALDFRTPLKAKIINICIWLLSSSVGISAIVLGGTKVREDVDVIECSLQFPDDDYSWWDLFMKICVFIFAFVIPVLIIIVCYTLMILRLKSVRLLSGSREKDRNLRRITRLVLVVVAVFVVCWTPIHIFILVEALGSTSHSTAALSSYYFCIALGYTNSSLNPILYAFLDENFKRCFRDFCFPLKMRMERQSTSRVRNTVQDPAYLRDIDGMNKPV

SMILES | Relative molar potency [1] | Relative molar potency [2] | Relative molar potency [3] | Molar potency [4]
CCC(=O)C(c1ccccc1)(c1ccccc1)[C@@H](C)[C@H](C)N(C)C (racemic) | inactive | inactive | inactive | –
CCC(=O)C(c1ccccc1)(c1ccccc1)[C@H](C)[C@H](C)N(C)C (single isomer, unassigned) | – | – | – | 1.7
CCC(=O)C(c1ccccc1)(c1ccccc1)C(C)CN(C)C (single isomer, unassigned) | – | – | – | 2.3
CCC(=O)C(c1ccccc1)(c1ccccc1)[C@@H](C)[C@@H](C)N(C)C (single isomer, unassigned) | – | – | – | 6.9
CN1CC[C@]23c4c5ccc(O)c4O[C@H]2[C@@H](O)C=C[C@H]3[C@H]1C5 [MORPHINE] | – | – | – | 6.5
